Consider one compound from US8476290B2, “Compound having spiro-bonded cyclic group and use thereof” (Ono Pharmaceutical Co., Ltd., priority 2009, dated 2013).

Data set [1] concerns X4-HIV-1 strains (for example, HIV-1NL4.3 strains). Nature of the data set: HIV infection inhibitory test using PBMC. In kind it is cell-based. The note with it: human PBMC stimulated with PHA and IL-2, culture 7 days, culture supernatant. The method, then:
Human PBMC (peripheral blood mononuclear cells) was isolated from HIV-negative healthy persons and subjected to stimulated culture in the presence of PHA (Phytohemagulutinin) and IL-2. Stimulated PBMC was inoculated in each of 96-well microplates and X^4-HIV-1 strains (for example, HIV-1NL4.3 strains) were exposed in the co-presence of a test compound. After culturing for 7 days, a reverse transcriptase activity of HIV-1 in the culture supernatant was measured and an inhibitory ratio (%) of the test compound was calculated by the following calculation formula, and a concentration (IC90 value) showing a 90% inhibitory ratio was determined. Inhibition={(Et−Ec)/Et}×100 [Equation 1] Et: reverse transcriptase activity value in the absence of a test compound Ec: reverse transcriptase activity value in the presence of a test compound

Data set [2] can be described thus: Blood kinetic test and time (T90) to maintain the IC90 value. The note with it: time the plasma concentration stays at the PBMC IC90 value or more; rat, intravenous 1 mg/kg. It is filed as in vivo, Crl:CD(SD) Rat. The method, then:
A test compound was weighed, dissolved in WellSolve (trade name; manufactured by Celeste Corporation)/water/physiological saline=1/9/10 which was heated at 60° C. and adjusted to 20 mg/mL. Thereafter, the test compound was diluted by 10 times with distilled water for injection, and further diluted by 2 times with physiological saline. Then, intravenous administration was performed by rapid single administration of an intravenously administered solution (1 mg/kg) from the tail vein of Crl:CD(SD) Rat (male, manufactured by CHARLES RIVER LABORATORIES JAPAN, INC). The administration is conducted under fasting conditions; water is freely ingested. A 0.35 mL blood sample is taken from cervical vein by using Heparinized Syringe at 5 minutes, 15 minutes, 30 minutes, 1 hour, 2 hours, 4 hours, 6 hours, 8 hours, and 24 hours after administration. The obtained blood is stored in ice, and after centrifugation at 12,000 rpm for 5 minutes, blood plasma is fractionated. An internal standard solution (100 μL) and acetonitrile (2 mL) was added to 100 μL of plasma, followed by stirring and further centrifugation at 2,500 rpm for 10 minutes. The supernatant was desiccated by a centrifugal thickener and then 150 μL of an aqueous 67% dimethyl sulfoxide solution was added to the residue thereby dissolving again the residue, and 20 μL of the resultant solution was analyzed by LC/MS/MS.
Analysis by LC/MS/MS was carried out under the following conditions.
A curve of the compound concentration in plasma versus the time of each compound was adapted to a 1 or 2 compartment model using pharmacokinetic analysis software WinNonlin (trade name) (ver4.0.1, Pharsight Corporation).

The next data set concerns the target T1, CXCR4 (Homo sapiens, UniProt P61073).
T1 construct: a human T cell strain in which CXCR4 is known to be expressed; endogenous in cells; host or cells: CEM cells (human T cell strain)
Nature of the data set: Inhibition of binding human SDF-1 to CEM cells. Conditions: 125I-SDF-1, CEM cells, 4° C., 60 minutes; read-out: concentration showing 50% of an inhibition ratio. Here is the method: Specifically, as a system of screening a compound that inhibits the binding between SDF-1 and CXCR4, for example a system of measuring the binding between iodine-labeled SDF-1 and a human T cell strain in which CXCR4 is known to be expressed is operable.
To human T cell strain CEM cells in a binding buffer (containing 2-[4-(2-Hydroxyethyl)-1-piperadinyl]ethansulfonic acid; HEPES and BSA), the test compound and ^125I-SDF-1 (PerkinElmer) were added and the mixture was incubated at 4° C. for 60 minutes. The reacted CEM cells were rapidly filtrated with a GF/B membrane filter plate (Packard) to adsorb. The plate was washed with phosphate buffered saline (hereinafter abbreviated to PBS) three times and then dried. Microscint+20 (Packard) was added thereto. An amount of the radioactivity bound to the CEM cells was measured using Top Count (Packard) and inhibition ratio (%) of the test compound was calculated according to the following equation: Inhibition={(Et−Ea)/(Et−Ec)}×100 [Equation 2] Et: Amount of radioactivity when the test compound is not added, Ec: Amount of radioactivity when non-radioactive SDF-1 (Pepro Tech) is added in an amount of 1,000 times as much as ^125I-SDF-1 as a test compound, and Ea: Amount of radioactivity when the test compound is added.

Data set [3] relates to CHL/IU (cell line derived from a Chinese hamster lung). Nature of the data set: Phospholipid accumulation measurement (phospholipidosis induction). It is filed as cell-based. Conditions: NBD-PE, about 48 hours, at 400 μM (maximum treatment concentration); positive = 25% or more of maximum increase rate of amiodarone. Here is the method: 100 µL/well as required (1 dose 2 wells) of cell suspension of CHL/IU (cell line derived from a Chinese hamster lung) (7×10^4 cells/mL) prepared by MEM (minimum essential medium) culture medium was added to a 96-well plate (96-well clear-bottom plate), and cultured for about 24 hours. After culture, the supernatant of the 96-well plate was removed, and the 100 μL/well compounds of each concentration dissolved and suspended in a minimum essential medium (MEM) including 25 μM nitrobenzoxazole dipalmitoyl phosphatidylethanolamine (NBD-PE) (hereinafter abbreviated to a NPD-PE medium) were added and treated for about 48 hours. The treatment concentrations of each compound were set to be 5, 50, 100, 200 and 400 μM. The positive control substance was set to be amiodarone hydrochloride, and the treatment concentrations were set to be 1.25, 2.5, 5, 10 and 20 μM. In addition, 5-well untreated controls (only MEM) and 5-well NBD-PE controls (made by means of adding a 1/100 amount of DMSO to the NBD-PE culture medium) were set per compound, and cultured in the same manner. After finishing the culture, the cultures were washed twice with PBS (−) 100 μL/well, and the MEM (100 μL) was added to all of the treatment wells including two empty wells for WST-1 background controls and cultured for about half an hour. The fluorescence intensities of each well were measured by using a microplate reader (manufactured by Molecular Devices Inc., SPECTRA max M2; the excitation wavelength 485 nm/fluorescence wavelength 535 nm). Using the average values of each dose×2 wells, a phospholipid increase rate (%) to the NBD-PE control was calculated by using the following calculating formula: Rate of increase of phospholipid accumulation (%)=100×{(test substance fluorescence intensity−non-treated control fluorescence intensity)/(NBD-PE control fluorescence intensity−non-treated control fluorescence intensity)} 3. Cytotoxicity Test 96-well plate measured in the phospholipid accumulation measurement was measured by means of Plate Reader (manufactured by Molecular Devices Inc., SPECTRA max M2) with the main wavelength of 450 nm and the correct wavelength of 690 nm to calculate a Pre value. An amount of 5 μL/well of Premix WST-1 was added to each of the 96-well plates by which Pre measurement was conducted. After culture for 2 to 4 hours, the 96-well plate was measured as well as the Pre measurement to calculate an Aft value. Then, the background control value was subtracted from the each measured value. A value which was calculated by subtracting the Pre value from the Aft value was used, then the cell growth rate (%) was calculated by using the following calculating formula: Cell growth rate (%)=100×{(test substance OD)/(NBD-PE control OD)} 4. Determination A test dose that indicated value of 25% or more of the maximum phospholipid accumulation increase rate of amiodarone which was the positive control was determined as positive. In addition, the dose whose cell growth rate was equal to or less than 50% in the cytotoxicity test was not used for determination of existence or nonexistence of a phospholipidosis inductive effect.

T1 sequence (P61073 whole entry): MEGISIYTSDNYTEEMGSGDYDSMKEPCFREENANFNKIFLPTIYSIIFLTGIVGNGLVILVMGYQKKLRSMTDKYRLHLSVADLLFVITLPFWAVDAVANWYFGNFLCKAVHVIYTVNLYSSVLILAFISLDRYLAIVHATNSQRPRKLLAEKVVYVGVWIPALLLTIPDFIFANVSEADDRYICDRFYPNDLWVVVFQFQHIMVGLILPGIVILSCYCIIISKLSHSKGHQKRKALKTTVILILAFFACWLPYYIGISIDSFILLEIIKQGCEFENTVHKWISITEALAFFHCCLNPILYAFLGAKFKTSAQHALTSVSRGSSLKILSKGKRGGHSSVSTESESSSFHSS

As to `CCC(CC)N1CCC2(CC1)CC(C(=O)O)N(Cc1ccc(CN(Cc3ncc[nH]3)Cc3ncc[nH]3)cc1)C2` (stereo not shown) [Example 5(5), 2-(4-{[bis(1H-imidazol-2-ylmethyl)amino]methyl}benzyl)-8-(1-ethylpropyl)-2,8-diazaspiro[4.5]decane-3-carboxylic acid], in data set [1], the “IC90 value (concentration showing a 90% inhibitory ratio of HIV-1 reverse transcriptase activity)” value came to 0.27 nM. Further, the “T90” value in data set [2] worked out at 91 h. Besides, the IC50 on CXCR4 was 3 nM. Further, the “phospholipidosis induction activity (determination)” value in data set [3] is “negative”.
